Entries after “also recorded” stand apart in the source; their conditions may differ. Read-outs that look alike come from different tables or passages of the source.
Tests used:
Mer = details: Figure 1, known TAM kinase inhibitors; cited from earlier work
TYRO3 [1] = target: T1, TYRO3 (Homo sapiens, UniProt Q06418); details: Figure 1, known TAM kinase inhibitors; cited from earlier work
T1 sequence (Q06418 41-890): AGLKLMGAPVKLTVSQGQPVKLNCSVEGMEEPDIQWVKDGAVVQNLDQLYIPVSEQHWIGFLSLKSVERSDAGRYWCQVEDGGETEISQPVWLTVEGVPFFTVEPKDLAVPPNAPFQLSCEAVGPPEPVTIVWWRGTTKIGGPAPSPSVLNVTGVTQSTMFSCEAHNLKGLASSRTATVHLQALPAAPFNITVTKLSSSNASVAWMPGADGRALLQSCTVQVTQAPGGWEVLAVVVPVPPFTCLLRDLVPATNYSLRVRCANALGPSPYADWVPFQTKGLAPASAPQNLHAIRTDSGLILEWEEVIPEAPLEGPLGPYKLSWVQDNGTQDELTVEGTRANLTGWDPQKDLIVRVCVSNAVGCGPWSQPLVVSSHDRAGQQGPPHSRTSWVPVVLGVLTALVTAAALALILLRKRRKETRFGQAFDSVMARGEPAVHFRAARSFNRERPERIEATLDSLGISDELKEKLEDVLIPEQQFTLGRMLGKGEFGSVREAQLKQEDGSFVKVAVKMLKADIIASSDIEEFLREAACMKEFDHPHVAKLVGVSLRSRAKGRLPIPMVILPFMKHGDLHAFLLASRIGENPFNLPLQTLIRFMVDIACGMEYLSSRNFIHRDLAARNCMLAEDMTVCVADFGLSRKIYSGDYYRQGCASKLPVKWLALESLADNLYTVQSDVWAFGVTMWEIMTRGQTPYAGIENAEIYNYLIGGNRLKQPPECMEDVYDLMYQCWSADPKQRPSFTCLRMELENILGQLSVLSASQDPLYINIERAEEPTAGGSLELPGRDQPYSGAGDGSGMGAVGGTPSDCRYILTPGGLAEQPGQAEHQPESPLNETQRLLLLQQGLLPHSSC

MERTK = target: T2, MERTK (Homo sapiens, UniProt Q12866); experiment: Kinase assay at Km ATP (Eurofins Discovery), Mer; assay type: biochemical; details: Km ATP, read-out: IC50 (nM) MER
T2 sequence (Q12866 21-999): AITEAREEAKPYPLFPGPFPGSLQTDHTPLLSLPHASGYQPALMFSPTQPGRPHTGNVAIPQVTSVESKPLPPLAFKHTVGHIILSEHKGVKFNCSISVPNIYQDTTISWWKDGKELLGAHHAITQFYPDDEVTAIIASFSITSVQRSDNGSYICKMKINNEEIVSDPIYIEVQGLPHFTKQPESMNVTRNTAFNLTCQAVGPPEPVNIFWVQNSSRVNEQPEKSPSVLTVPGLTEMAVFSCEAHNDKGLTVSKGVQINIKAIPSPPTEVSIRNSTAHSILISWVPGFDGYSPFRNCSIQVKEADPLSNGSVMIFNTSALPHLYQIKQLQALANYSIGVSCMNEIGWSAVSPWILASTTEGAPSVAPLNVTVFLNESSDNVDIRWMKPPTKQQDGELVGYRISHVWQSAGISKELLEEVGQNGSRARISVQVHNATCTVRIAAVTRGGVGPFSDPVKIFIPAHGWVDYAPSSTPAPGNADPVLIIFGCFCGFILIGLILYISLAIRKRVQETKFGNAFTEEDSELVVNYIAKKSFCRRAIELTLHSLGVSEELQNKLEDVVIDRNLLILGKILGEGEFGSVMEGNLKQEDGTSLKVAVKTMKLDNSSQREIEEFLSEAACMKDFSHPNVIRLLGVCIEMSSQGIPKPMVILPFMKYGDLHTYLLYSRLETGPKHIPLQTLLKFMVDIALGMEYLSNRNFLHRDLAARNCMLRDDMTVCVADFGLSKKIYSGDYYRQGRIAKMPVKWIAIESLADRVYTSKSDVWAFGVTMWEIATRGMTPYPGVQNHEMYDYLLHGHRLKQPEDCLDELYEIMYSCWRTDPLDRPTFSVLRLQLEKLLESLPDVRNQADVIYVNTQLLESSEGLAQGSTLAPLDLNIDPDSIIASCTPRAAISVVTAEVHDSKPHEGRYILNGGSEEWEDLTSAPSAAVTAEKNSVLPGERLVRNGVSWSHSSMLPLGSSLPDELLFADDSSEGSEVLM
Experimental: (§1) All kinase assays were carried out at Km ATP by Eurofins Discovery's Kinase Screening and Profiling services (France).

AXL = target: T3, AXL (Homo sapiens, UniProt P30530); experiment: Kinase assay at Km ATP (Eurofins Discovery), Axl; assay type: biochemical; details: Km ATP
T3 sequence (P30530 26-894): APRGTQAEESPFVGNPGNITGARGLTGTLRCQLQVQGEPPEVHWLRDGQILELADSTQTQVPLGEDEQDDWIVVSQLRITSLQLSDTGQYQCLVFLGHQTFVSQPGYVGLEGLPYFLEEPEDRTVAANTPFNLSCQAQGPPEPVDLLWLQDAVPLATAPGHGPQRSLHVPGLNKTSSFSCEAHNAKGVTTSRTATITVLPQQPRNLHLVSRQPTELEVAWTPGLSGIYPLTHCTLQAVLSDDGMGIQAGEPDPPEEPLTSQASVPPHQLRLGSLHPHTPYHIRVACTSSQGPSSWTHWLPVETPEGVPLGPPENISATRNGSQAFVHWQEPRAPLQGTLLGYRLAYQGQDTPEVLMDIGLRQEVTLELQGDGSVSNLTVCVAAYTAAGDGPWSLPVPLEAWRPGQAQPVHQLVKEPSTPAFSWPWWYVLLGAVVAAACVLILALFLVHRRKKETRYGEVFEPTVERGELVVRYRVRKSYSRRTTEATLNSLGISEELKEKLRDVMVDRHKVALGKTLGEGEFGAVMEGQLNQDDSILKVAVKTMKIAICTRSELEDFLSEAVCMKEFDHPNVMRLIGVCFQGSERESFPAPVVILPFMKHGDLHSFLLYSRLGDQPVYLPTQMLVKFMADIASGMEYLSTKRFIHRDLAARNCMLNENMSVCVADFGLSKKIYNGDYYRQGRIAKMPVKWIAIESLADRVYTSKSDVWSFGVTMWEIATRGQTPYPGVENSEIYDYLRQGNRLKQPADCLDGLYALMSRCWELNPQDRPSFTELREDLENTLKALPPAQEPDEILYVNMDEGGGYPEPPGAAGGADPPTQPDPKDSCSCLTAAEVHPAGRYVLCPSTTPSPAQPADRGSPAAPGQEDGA
Experimental: as §1

TYRO3 [2] = target: T1, TYRO3; experiment: Kinase assay at Km ATP (Eurofins Discovery), Tyro3; assay type: biochemical
Experimental: as §1

[3] = test system: Mer phosphorylation in Mer-overexpressed human gastric cancer cell line MKN28; experiment: Western blot of Mer phosphorylation in MKN28 cells; assay type: cell-based; details: 0.5 and 0.1 μM, 1.5 h, UNC2025 positive control
Experimental: MKN28 cells were obtained from the Korea Institute of Science and Technology (KIST). Cells were cultured in Roswell Park Memorial Institute (RPMI) 1640 medium containing 10% fetal bovine serum and 1% penicillin/streptomycin at 37 °C with 5% CO2 under a humidified atmosphere.
MKN 28 cells (500,000 cells/2 ml) were seeded in each well of 6-well plates and incubated for 24 h. Then, the cells were treated with 20 µL of DMSO stock solution of the corresponding compounds and incubated for a further 1.5 h. After that, the cells were washed with cold Dulbecco's Phosphate-Buffered Saline (DPBS) twice and lysed with RIPA buffer supplemented with protease inhibitor and phosphatase inhibitor cocktails on ice. Equal amounts of protein samples were boiled with 5× SDS-PAGE loading buffer and separated by 10% SDS-PAGE gels, then transferred onto polyvinylidene difluoride (PVDF) membranes. The membranes were blocked with 5% BSA in 1× TBST (1× TBS with 0.1% Tween-20) for 1 h and incubated at 4 °C overnight with a 1:1000 dilution of the following primary antibodies in blocking buffer: pMer (Tyr749 + 753 + 754, ab14921), Mer (CST, # 4319), and ß-actin (SC, # SC-47778). […]
Figure 3. […] Bar graph represents the relative intensities of the total and phosphorylated Mer as determined by band densitometry using image analysis software.

In the case of `CCOc1ccn(-c2ccc(F)cc2)c(=O)c1C(=O)Nc1ccc(Oc2ccnc(N)c2Cl)c(F)c1` [BMS-777607], the IC50 (Mer) is listed as 14 nM and the IC50 (TYRO3 [1]) is listed as 4 nM.

In the case of `COc1ccc(-n2ccc3cnc(Nc4cc(OC)cc(N5CCC(N6CCCC6)CC5)c4)nc32)cc1` [Compound 27, N-(3-Methoxy-5–(4-(pyrrolidin-1-yl)piperidin-1-yl)phenyl)-7–(4-methoxyphenyl)-7H-pyrrolo[2,3-d]pyrimidin-2-amine], the IC50 (MERTK; Table 2) is reported as 2 nM, the IC50 (AXL; Table 2) is reported as 16 nM and the inhibition at 1 µM (TYRO3 [2]) is reported as 40%. For the same molecule, the “Inhibitory effect on Mer phosphorylation” value [3] was “better effect on blocking phosphorylation than UNC2025; also recorded: considerable inhibition for Mer phosphorylation in cells”.

In the case of `COc1ccc(-n2ccc3cnc(Nc4cc(OC)cc(N5CCN(C6COC6)CC5)c4)nc32)cc1` [Compound 30, N-(3-Methoxy-5–(4-(oxetan-3-yl)piperazin-1-yl)phenyl)-7–(4-methoxyphenyl)-7H-pyrrolo[2,3-d]pyrimidin-2-amine], the IC50 (MERTK; Table 2) is reported as 36 nM, the IC50 (AXL; Table 2) is reported as 212 nM and the inhibition at 1 µM (TYRO3 [2]) is reported as 39%.

`COc1cc(Nc2ncc3ccn(-c4ccccc4)c3n2)cc(N2CCC(N3CCCC3)CC2)c1` [Compound 34, N-(3-Methoxy-5–(4-(pyrrolidin-1-yl)piperidin-1-yl)phenyl)-7-phenyl-7H-pyrrolo[2,3-d]pyrimidin-2-amine] gave an IC50 (MERTK; Table 3) of 17 nM, an IC50 (AXL; Table 3) of 48 nM and an inhibition at 1 µM (TYRO3 [2]) of 35%.

Source: paper PMC7534383, “Structure-activity relationship of 7-aryl-2-anilino-pyrrolopyrimidines as Mer and Axl tyrosine kinase inhibitors” (Journal of Enzyme Inhibition and Medicinal Chemistry, 2020)
